The target in one assay is T1, Glucocorticoid receptor (Homo sapiens, UniProt P04150).
T1 sequence (P04150 whole entry): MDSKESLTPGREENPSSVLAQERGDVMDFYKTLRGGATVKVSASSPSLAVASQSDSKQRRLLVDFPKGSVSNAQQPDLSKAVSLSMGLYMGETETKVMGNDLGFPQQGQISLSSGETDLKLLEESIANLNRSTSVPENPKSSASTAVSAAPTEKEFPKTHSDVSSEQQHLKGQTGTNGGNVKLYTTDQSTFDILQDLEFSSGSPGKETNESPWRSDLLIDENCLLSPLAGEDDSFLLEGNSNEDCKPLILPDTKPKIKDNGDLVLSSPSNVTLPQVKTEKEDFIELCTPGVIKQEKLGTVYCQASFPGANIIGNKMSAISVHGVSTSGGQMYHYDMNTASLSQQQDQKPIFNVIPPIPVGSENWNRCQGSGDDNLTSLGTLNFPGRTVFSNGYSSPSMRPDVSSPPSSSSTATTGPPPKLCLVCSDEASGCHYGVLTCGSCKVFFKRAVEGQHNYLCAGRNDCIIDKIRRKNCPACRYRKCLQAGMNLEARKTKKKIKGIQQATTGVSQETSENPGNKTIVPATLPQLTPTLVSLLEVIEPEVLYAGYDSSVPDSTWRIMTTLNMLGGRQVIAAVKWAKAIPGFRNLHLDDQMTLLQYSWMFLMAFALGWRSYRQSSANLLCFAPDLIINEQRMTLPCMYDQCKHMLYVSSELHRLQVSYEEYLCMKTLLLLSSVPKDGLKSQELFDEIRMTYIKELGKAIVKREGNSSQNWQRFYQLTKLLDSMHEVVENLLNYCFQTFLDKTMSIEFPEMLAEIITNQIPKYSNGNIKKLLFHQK

The target in a further assay is D(1A) dopamine receptor (Homo sapiens, UniProt P21728). In kind it is functional, cell-based.
D(1A) dopamine receptor, sequence (P21728 whole entry): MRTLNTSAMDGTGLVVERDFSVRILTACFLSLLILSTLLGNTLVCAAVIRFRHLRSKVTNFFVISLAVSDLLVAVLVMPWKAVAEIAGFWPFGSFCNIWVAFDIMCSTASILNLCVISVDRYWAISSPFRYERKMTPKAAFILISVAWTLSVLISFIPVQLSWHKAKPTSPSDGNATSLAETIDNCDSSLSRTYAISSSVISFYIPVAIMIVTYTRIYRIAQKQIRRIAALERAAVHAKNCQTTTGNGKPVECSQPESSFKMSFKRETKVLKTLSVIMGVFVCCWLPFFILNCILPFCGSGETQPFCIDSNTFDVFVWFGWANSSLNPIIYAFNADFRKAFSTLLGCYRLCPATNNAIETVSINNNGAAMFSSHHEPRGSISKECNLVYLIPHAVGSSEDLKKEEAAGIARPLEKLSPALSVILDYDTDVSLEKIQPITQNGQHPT
For assay [1], the target named is Beta-1 adrenergic receptor (Homo sapiens, UniProt P08588). In kind it is functional.
Beta-1 adrenergic receptor, sequence (P08588 whole entry): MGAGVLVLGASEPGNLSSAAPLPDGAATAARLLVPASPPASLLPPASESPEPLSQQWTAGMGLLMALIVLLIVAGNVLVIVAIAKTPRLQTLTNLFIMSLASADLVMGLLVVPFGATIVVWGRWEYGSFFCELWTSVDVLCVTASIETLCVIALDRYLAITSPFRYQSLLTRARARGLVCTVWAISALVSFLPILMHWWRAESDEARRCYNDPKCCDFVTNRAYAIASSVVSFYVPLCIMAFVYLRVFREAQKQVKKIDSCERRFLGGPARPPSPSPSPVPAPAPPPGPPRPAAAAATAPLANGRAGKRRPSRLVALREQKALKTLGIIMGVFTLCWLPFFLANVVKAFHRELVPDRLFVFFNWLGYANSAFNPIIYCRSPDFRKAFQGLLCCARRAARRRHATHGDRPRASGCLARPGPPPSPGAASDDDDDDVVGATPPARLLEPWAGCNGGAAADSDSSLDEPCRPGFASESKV
A further assay has as its target T2, Endothelin-1 receptor (Homo sapiens, UniProt P25101).
T2 sequence (P25101 whole entry): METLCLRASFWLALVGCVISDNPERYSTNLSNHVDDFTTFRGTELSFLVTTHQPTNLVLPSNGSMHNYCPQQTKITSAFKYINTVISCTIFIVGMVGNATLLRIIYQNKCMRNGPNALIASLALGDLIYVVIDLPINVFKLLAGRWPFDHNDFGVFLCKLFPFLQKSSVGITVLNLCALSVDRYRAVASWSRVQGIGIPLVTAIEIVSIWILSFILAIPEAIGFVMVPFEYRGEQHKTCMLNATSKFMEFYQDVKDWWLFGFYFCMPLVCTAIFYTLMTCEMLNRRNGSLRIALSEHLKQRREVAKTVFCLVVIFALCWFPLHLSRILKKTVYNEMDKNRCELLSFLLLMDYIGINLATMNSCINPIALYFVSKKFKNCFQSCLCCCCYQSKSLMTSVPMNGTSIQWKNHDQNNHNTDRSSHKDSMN

Assay [2] concerns the target T3, 5-hydroxytryptamine receptor 2C (Homo sapiens, UniProt P28335).
T3 sequence (P28335 whole entry): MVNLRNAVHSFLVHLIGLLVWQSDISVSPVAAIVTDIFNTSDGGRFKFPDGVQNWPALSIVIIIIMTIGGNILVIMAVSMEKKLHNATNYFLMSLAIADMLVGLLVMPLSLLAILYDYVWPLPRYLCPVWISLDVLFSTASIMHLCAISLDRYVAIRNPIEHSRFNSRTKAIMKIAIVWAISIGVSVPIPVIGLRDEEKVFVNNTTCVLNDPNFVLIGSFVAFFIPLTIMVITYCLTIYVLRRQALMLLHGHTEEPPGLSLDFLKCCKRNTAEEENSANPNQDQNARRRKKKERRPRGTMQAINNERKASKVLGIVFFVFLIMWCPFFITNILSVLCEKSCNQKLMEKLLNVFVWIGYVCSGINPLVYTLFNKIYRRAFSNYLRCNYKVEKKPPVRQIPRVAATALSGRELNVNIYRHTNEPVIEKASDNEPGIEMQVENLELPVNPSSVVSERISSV

For orientation: AC50 means the concentration giving half of the maximal activity seen. A high value points to weaker potency.

Each structure is given as a SMILES string.
Note: assay procedure not described here.

Take `CNS(=O)(=O)Cc1ccc2[nH]cc(CCN(C)C)c2c1`: the AC50 on Glucocorticoid receptor was more than 30 µM; at D(1A) dopamine receptor, more than 30 µM; in assay [1] it was more than 10 µM; on Endothelin-1 receptor it was more than 30 µM.

On to `NCC(=O)CCC(=O)O` [AMINOLEVULINIC ACID], for which the AC50 (on Glucocorticoid receptor; at D(1A) dopamine receptor; in assay [1]; on Endothelin-1 receptor; in assay [2]) was more than 30 µM each time.

In the case of `CCOC(=O)OC(C)OC1=C(C(=O)Nc2ccccn2)N(C)S(=O)(=O)c2ccccc21` (stereo not given) [AMPIROXICAM], the AC50 (on Glucocorticoid receptor; on D(1A) dopamine receptor; in assay [1]; at Endothelin-1 receptor; in assay [2]) was more than 30 µM throughout.

Take `COC(=O)C1=C(C)NC(C)=C(C(=O)OC2CCCN(Cc3ccccc3)C2)C1c1cccc([N+](=O)[O-])c1` (stereo not given) [BENIDIPINE]: the AC50 (on Glucocorticoid receptor; at D(1A) dopamine receptor; in assay [1]; at Endothelin-1 receptor; in assay [2]) was more than 30 µM each time.

With `CO/N=C(\C(=O)N[C@@H]1C(=O)N2C(C(=O)O)=C(CSc3nnnn3C)CS[C@H]12)c1csc(N)n1` [CEFMENOXIME], the AC50 (at Glucocorticoid receptor; on D(1A) dopamine receptor; in assay [1]; at Endothelin-1 receptor) was more than 30 µM each time.

Regarding `CC(=O)OCC(=O)[C@@]12N=C(C)O[C@@H]1C[C@H]1[C@@H]3CCC4=CC(=O)C=C[C@]4(C)[C@H]3[C@@H](O)C[C@@]12C` [DEFLAZACORT], the AC50 is 0.66 µM on Glucocorticoid receptor; more than 30 µM on D(1A) dopamine receptor; more than 30 µM in assay [1]; more than 30 µM at Endothelin-1 receptor; more than 30 µM in assay [2].

Consider `CCCCCCOc1ccccc1C(N)=O` [EXALAMIDE], for which the AC50 (on Glucocorticoid receptor; on D(1A) dopamine receptor; in assay [1]; on Endothelin-1 receptor; in assay [2]) was more than 30 µM throughout.

For `CCc1c(Cl)c(O)c(Cl)c(O)c1C(=O)O[C@H]1[C@H](O)[C@H](OC)[C@H](OC/C2=C\C=C\C[C@H](O)/C(C)=C/[C@H](CC)[C@@H](O[C@@H]3OC(C)(C)[C@@H](OC(=O)C(C)C)[C@H](O)[C@@H]3O)/C(C)=C/C(C)=C/C[C@@H]([C@@H](C)O)OC2=O)O[C@@H]1C` [FIDAXOMICIN], the concentration at half-maximal activity (AC50) on Glucocorticoid receptor is more than 30 µM; in assay [1], more than 10 µM; at Endothelin-1 receptor, more than 30 µM; in assay [2], more than 30 µM.

For the molecule `CC(C(=O)O)c1ccc(N2Cc3ccccc3C2=O)cc1` (stereo not given) [INDOPROFEN], the AC50 is more than 30 µM at Glucocorticoid receptor; 0.51 µM at D(1A) dopamine receptor; more than 30 µM in assay [1]; more than 30 µM at Endothelin-1 receptor; more than 30 µM in assay [2].

For `Nc1nc(N)nc(-c2cc(Cl)ccc2Cl)n1` [IRSOGLADINE], the AC50 (on Glucocorticoid receptor; on D(1A) dopamine receptor; in assay [1]; at Endothelin-1 receptor) was more than 30 µM in each case.

With `CC(Oc1c(Cl)cccc1Cl)C1=NCCN1` (stereo not given) [LOFEXIDINE], the AC50 (at Glucocorticoid receptor; at D(1A) dopamine receptor; in assay [1]; on Endothelin-1 receptor; in assay [2]) was more than 30 µM each time.

Take `CC(C)=CCC/C(C)=C/C=C/C(C)=C/C=C/C(C)=C/C=C/C=C(C)/C=C/C=C(C)/C=C/C=C(\C)CCC=C(C)C` [LYCOPENE]: the concentration at half-maximal activity (AC50) (at Glucocorticoid receptor; on D(1A) dopamine receptor; in assay [1]; on Endothelin-1 receptor; in assay [2]) was more than 30 µM each time.

Turning to `CCOC(=O)[N-]c1cn(N2CCOCC2)n[o+]1` [MOLSIDOMINE], the AC50 (at Glucocorticoid receptor; on D(1A) dopamine receptor; in assay [1]; on Endothelin-1 receptor; in assay [2]) was more than 30 µM in each case.

Consider `OC(CNCC(O)C1CCc2cc(F)ccc2O1)C1CCc2cc(F)ccc2O1` (stereo not given) [NEBIVOLOL], for which the AC50 at Glucocorticoid receptor was more than 30 µM; at D(1A) dopamine receptor it was more than 30 µM; at Endothelin-1 receptor it was more than 30 µM; in assay [2], 20 µM.
